Values after ≈ are worked out from the molar mass of the structure shown. Where two headings read alike, the source gives them in different places. One block for each molecule: values may come before it.
Tests used:
[1] = Toxicity (LD 50), mice, intraperitoneal administration; assay type: in vivo; settings: mouse, in vivo, ip; mice, intraperitoneal administration
Description: (§1) ^(3) Mice. Intraperitoneal administration.

human thrombocytes = experiment: Inhibition of the collagen-induced aggregation of human thrombocytes in vitro; assay type: cell-based; settings: for EC50: 10 min, read-out: Inhibition of thrombocyte aggregation EC 50%; for Inhibition of thrombocyte aggregation R.E. (relative effectiveness): acetylsalicylic acid = 1.00
Experimental: 1. Inhibition of the collagen-induced aggregation of human thrombocytes in vitro.
Thrombocyte-rich plasma is obtained by centrifuging venous citrate blood (300 g, 10 minutes duration at 4° C.). The photometric measurement of the thrombocyte aggregation is carried out with addition of MgCl2 (final concentration 10 millimoles/l) and of collagen Stago (final concentration 0.02 mg/ml) in a Born Mk 3 aggregometer. The maximum extinction change/sec is used as a measure of the aggregation.
The aggregation-inhibiting activity of the substances is tested after an incubation time of 10 minutes.
(§2) The effective doses or effective concentrations were calculated from the linear relationships between the logarithm of the dose or concentration and the logarithm of the effect, by means of regression analysis.
(§3) Acetylsalicyclic acid was used as the reference substance for the inhibition of thrombocyte aggregation and dihydralazine was used as the reference substance for the anti-hypertensive effect.

rat thrombocytes = experiment: Inhibition of the collagen-induced aggregation of rat thrombocytes ex vivo; assay type: in vivo, male Sprague-Dawley rats; settings: for ED33: Rattus norvegicus, read-out: Inhibition of thrombocyte aggregation ED 33%; for Inhibition of thrombocyte aggregation R.E. (relative effectiveness): acetylsalicylic acid 1.0
Experimental: 2. Inhibition of the collagen-induced aggregation of rat thrombocytes ex vivo.
The substances are administered orally to groups of 10-15 male Sprague-Dawley rats weighing 200-250 g. 2-4 hours after administration, blood is taken under ether narcosis and thrombocyte-rich plasma is obtained by centrifuging. The aggregation after addition of collagen is measured as indicated above.
as §2, §3

narcotized rats = experiment: Anti-hypertensive effect on narcotized rats; assay type: in vivo, male Sprague-Dawley rats; settings: for ED20: Rattus norvegicus, ip, dose at which the blood pressure falls by 20%, read-out: Lowering of blood pressure ED 20%; for ED20 / Lowering of blood pressure R.E. (relative effectiveness): rats, urethane narcosis, intraperitoneal; for Lowering of blood pressure R.E. (relative effectiveness): dihydralazine = 1.00; for anti-hypertensive effect (in words): Table 1; for anti-hypertensive power relative to dihydralazine: times more powerful than dihydralazine
Experimental: 3. Anti-hypertensive effect on narcotized rats.
To test the anti-hypertensive effect, the substances are administered intraperitoneally to groups of 3-5 male Sprague-Dawley rats weighing 240-280 g, under urethane narcosis ([…] given intraperitoneally). The measurement of the blood pressure in the carotid artery is carried out by means of Statham transducers. The ED 20% is determined as the dose which lowers the mean carotid blood pressure by 20%.
as §2, §3

[2] = tested on: spontaneously hypertonic rats; experiment: Anti-hypertensive effect on spontaneously hypertonic rats; assay type: in vivo, male spontaneously hypertonic Okamoto rats; settings: for ED20: Rattus norvegicus, 2 hours, dose which lowers the blood pressure by 20% compared to the control group, read-out: Anti-hypertensive effect ED 20%; for ED20 / Anti-hypertensive effect R.E. (relative effectiveness): spontaneously hypertonic rats, oral; for Anti-hypertensive effect R.E. (relative effectiveness): dihydralazine 1.0
Experimental: 4. Anti-hypertensive effect on spontaneously hypertonic rats.
The substances are administered orally to groups of 4-8 male spontaneously hypertonic Okamoto rats weighing 270-340 g.
Before, and 2 hours after, the administration, the systolic blood pressure is measured non-surgically by means of piezo-electric crystal sensors.
The ED 20% is determined as the dose which lowers the systolic pressure by 20%, taking into account the values found with untreated control animals.
as §2, §3

Mice = experiment: Toxicity (LD 50), mice, intraperitoneal administration; assay type: in vivo; settings: compared with acetylsalicylic acid and dihydralazine; Table 2
Description: as §1

[3] = human thrombocytes, in vitro, collagen 0.02 mg/ml, 10 minutes incubation, concentration which inhibits collagen-induced aggregation by 50%

SMILES: CC(=O)Oc1ccccc1C(=O)O [Acetylsalicylic acid, acetylsalicylic acid, reference compound]
LD50 [1]: 167 mg/kg
EC50 (human thrombocytes; Homo sapiens): 494 µg/mL (≈ 2740 µM)
ED33 (rat thrombocytes; po): 134 mg/kg
Inhibition of thrombocyte aggregation R.E. (relative effectiveness) (rat thrombocytes; rats, oral, ex vivo): 1.0

SMILES: NNc1nnc(NN)c2ccccc12 [Dihydralazine, dihydralazine, reference compound]
LD50 [1]: 106 mg/kg
ED20 (narcotized rats): 0.34 mg/kg
Lowering of blood pressure R.E. (relative effectiveness) (narcotized rats): 1.00
ED20 [2]: 6.85 mg/kg
Anti-hypertensive effect R.E. (relative effectiveness) [2]: 1.0
EC50 (human thrombocytes; [3]): 149 µg/mL (≈ 783 µM)
Inhibition of thrombocyte aggregation R.E. (relative effectiveness) (human thrombocytes; human thrombocytes, in vitro): 3.32

SMILES: CC1CC(=O)NN=C1c1ccc(NC(=O)CCl)cc1 (stereo not shown) [Example 3, 6-(p-chloroacetylaminophenyl)-5-methyl-4,-dihydropyridaz-3-one]
ED20 (narcotized rats): 0.15 mg/kg
anti-hypertensive effect (in words) (narcotized rats): about as active as dihydralazine
Lowering of blood pressure R.E. (relative effectiveness) (narcotized rats): 2.27
EC50 (human thrombocytes; [3]): 0.11 µg/mL (≈ 0.393 µM)
Inhibition of thrombocyte aggregation R.E. (relative effectiveness) (human thrombocytes; human thrombocytes, in vitro): 4,490

SMILES: CC(Cl)C(=O)Nc1ccc(C2=NNC(=O)CC2C)cc1 (stereo not shown) [Example 5, 6-[p-(2-chloropropionylamino)-phenyl]-5-methyl-4,5-dihydropyridaz-3-one]
LD50 [1]: 231 mg/kg
acute toxicity (in words) (Mice): somewhat less than that of acetylsalicyclic acid and dihydralazine
ED20 (narcotized rats): 0.0079 mg/kg
Lowering of blood pressure R.E. (relative effectiveness) (narcotized rats): 43.04
anti-hypertensive power relative to dihydralazine (narcotized rats): 43 times
ED20 [2]: 1.16 mg/kg
lowering of blood pressure ([2]; spontaneously hypertensive rats, oral dose of 1.2 mg/kg): about 20%
Anti-hypertensive effect R.E. (relative effectiveness) [2]: 5.9
EC50 (human thrombocytes; [3]): 0.031 µg/mL (≈ 0.106 µM)
Inhibition of thrombocyte aggregation R.E. (relative effectiveness) (human thrombocytes; human thrombocytes, in vitro): 15,900
ED33 (rat thrombocytes; rats, oral, ex vivo, Example 5 given 2 hours, acetylsalicylic acid 4 hours before measuring, dose which inhibits collagen-induced aggregation by 33%): 0.82 mg/kg
inhibition of thrombocyte aggregation after oral administration (in words) (rat thrombocytes; oral, Table 2): very strong inhibition of thrombocyte aggregation
Inhibition of thrombocyte aggregation R.E. (relative effectiveness) (rat thrombocytes; rats, oral, ex vivo): 163

SMILES: CCC(Br)C(=O)Nc1ccc(C2=NNC(=O)CC2C)cc1 (stereo not shown) [Example 9]
ED20 (narcotized rats): 1.49 mg/kg
anti-hypertensive effect (in words) (narcotized rats): slight
Lowering of blood pressure R.E. (relative effectiveness) (narcotized rats): 0.23
EC50 (human thrombocytes; [3]): 0.27 µg/mL (≈ 0.767 µM)
Inhibition of thrombocyte aggregation R.E. (relative effectiveness) (human thrombocytes; human thrombocytes, in vitro): 1,830

SMILES: CC1CC(=O)NN=C1c1ccc(NC(=O)C(C)(C)CCl)cc1 (stereo not shown) [Example 11]
ED20 (narcotized rats): 0.61 mg/kg
Lowering of blood pressure R.E. (relative effectiveness) (narcotized rats): 0.56
EC50 (human thrombocytes; [3]): 0.47 µg/mL (≈ 1.46 µM)
Inhibition of thrombocyte aggregation R.E. (relative effectiveness) (human thrombocytes; human thrombocytes, in vitro): 1,050

SMILES: CC1CC(=O)NN=C1c1ccc(NC(=O)C(C)(C)CBr)cc1 (stereo not shown) [Example 12]
ED20 (narcotized rats): 0.34 mg/kg
anti-hypertensive effect (in words) (narcotized rats): about as active as dihydralazine
Lowering of blood pressure R.E. (relative effectiveness) (narcotized rats): 1.00
EC50 (human thrombocytes; [3]): 0.44 µg/mL (≈ 1.2 µM)
Inhibition of thrombocyte aggregation R.E. (relative effectiveness) (human thrombocytes; human thrombocytes, in vitro): 1,120

SMILES: CC(Br)C(=O)Nc1ccc(C2=NNC(=O)CC2C)cc1 (stereo not shown) [Example 16]
ED20 (narcotized rats): 0.4 mg/kg
anti-hypertensive effect (in words) (narcotized rats): about as active as dihydralazine
Lowering of blood pressure R.E. (relative effectiveness) (narcotized rats): 0.85
EC50 (human thrombocytes; [3]): 0.58 µg/mL (≈ 1.71 µM)
Inhibition of thrombocyte aggregation R.E. (relative effectiveness) (human thrombocytes; human thrombocytes, in vitro): 852

SMILES: CC1CC(=O)NN=C1c1ccc(NC(=O)C(C)(C)Br)cc1 (stereo not shown) [Example 17]
ED20 (narcotized rats): 2.93 mg/kg
anti-hypertensive effect (in words) (narcotized rats): slight
Lowering of blood pressure R.E. (relative effectiveness) (narcotized rats): 0.12
EC50 (human thrombocytes; [3]): 0.89 µg/mL (≈ 2.53 µM)
Inhibition of thrombocyte aggregation R.E. (relative effectiveness) (human thrombocytes; human thrombocytes, in vitro): 555

Now from value to molecule, other results behind:

EC50 (human thrombocytes; [3]): 0.25 µg/mL (≈ 0.941 µM)
SMILES: O=C1CCC(c2ccc(NC(=O)CCl)cc2)=NN1 [Example 1, 6-(p-chloroacetylaminophenyl)-4,5-dihydropyridaz-3-one]
ED20 (narcotized rats): 0.37 mg/kg
anti-hypertensive effect (in words) (narcotized rats): about as active as dihydralazine
Lowering of blood pressure R.E. (relative effectiveness) (narcotized rats): 0.92
Inhibition of thrombocyte aggregation R.E. (relative effectiveness) (human thrombocytes; human thrombocytes, in vitro): 1,980

EC50 (human thrombocytes; [3]): 0.27 µg/mL (≈ 0.965 µM)
SMILES: CC(Cl)C(=O)Nc1ccc(C2=NNC(=O)CC2)cc1 (stereo not shown) [Example 4, 6-[p-(2-chloropropionylamino)-phenyl]-4,5-dihydropyridaz-3-one]
ED20 (narcotized rats): 0.53 mg/kg
anti-hypertensive effect (in words) (narcotized rats): about as active as dihydralazine
Lowering of blood pressure R.E. (relative effectiveness) (narcotized rats): 0.64
Inhibition of thrombocyte aggregation R.E. (relative effectiveness) (human thrombocytes; human thrombocytes, in vitro): 1,830

EC50 (human thrombocytes; [3]): 0.35 µg/mL (≈ 1.25 µM)
SMILES: O=C1CCC(c2ccc(NC(=O)CCCl)cc2)=NN1 [Example 6, 6-[p-(3-chloropropionylamino)-phenyl]-4,5-dihydropyridaz-3-one]
ED20 (narcotized rats): 10 mg/kg
anti-hypertensive effect (in words) (narcotized rats): slight
Lowering of blood pressure R.E. (relative effectiveness) (narcotized rats): 0.03
inhibition of thrombocyte aggregation (in words) (human thrombocytes; human thrombocytes, collagen-induced, Table 1): highly specific thrombocyte aggregation-inhibiting effect
Inhibition of thrombocyte aggregation R.E. (relative effectiveness) (human thrombocytes; human thrombocytes, in vitro): 1,410

EC50 (human thrombocytes; [3]): 0.3 µg/mL (≈ 1.02 µM)
SMILES: CC1CC(=O)NN=C1c1ccc(NC(=O)CCCl)cc1 (stereo not shown) [Example 7, 6-[p-(3-chloropropionylamino)-phenyl]-5-methyl-4,5-dihydropyridaz-3-one]
ED20 (narcotized rats): 0.045 mg/kg
Lowering of blood pressure R.E. (relative effectiveness) (narcotized rats): 7.56
anti-hypertensive power relative to dihydralazine (narcotized rats): 7.6 times
Inhibition of thrombocyte aggregation R.E. (relative effectiveness) (human thrombocytes; human thrombocytes, in vitro): 1,650

EC50 (human thrombocytes; [3]): 1.7 µg/mL (≈ 5.52 µM)
SMILES: CC1CC(=O)NN=C1c1ccc(NC(=O)CCCCl)cc1 (stereo not shown) [Example 8, 6-[p-(4-chlorobutyrylamino)-phenyl]-5-methyl-4,5-dihydropyridaz-3-one]
ED20 (narcotized rats): 0.32 mg/kg
anti-hypertensive effect (in words) (narcotized rats): about as active as dihydralazine
Lowering of blood pressure R.E. (relative effectiveness) (narcotized rats): 1.06
Inhibition of thrombocyte aggregation R.E. (relative effectiveness) (human thrombocytes; human thrombocytes, in vitro): 291

— patent publication US4376771A, “6-(p-Acylaminophenyl)-4,5-dihydropyridaz-3-ones and therapeutic agents containing said compounds” (BASF Aktiengesellschaft, priority 1977, dated 1983)
